Experimental data: patent US10278957B2, “Opioid agonist peptides and uses thereof” (Protagonist Therapeutics, Inc., priority 2017, dated 2019)

Tests used:
[1] = SIF assay (stability in simulated intestinal fluid); assay type: in vitro ADME; settings: for half-life at 20 μM: simulated intestinal fluid (SIF) with pancreatin, simulated intestinal fluid, pH 6.8, pancreatin, 37° C.
Protocol: SIF was prepared by adding 6.8 g of monobasic potassium phosphate and 10.0 g of pancreatin to 1.0 L of water. After dissolution, the pH was adjusted to 6.8 using NaOH. DMSO stocks (2 mM) were prepared for each of the opioid agonist peptides. Aliquots of the DMSO solutions were dosed into […], each containing 0.5 mL of SIF, which was pre-warmed to 37° C. The final opioid agonist peptide concentration was 20 μM. The vials were kept in a benchtop Thermomixer® for the duration of the experiment. At each timepoint (0, 5, 10, 20, 40, 60, or 360 minutes or 24 hours), 1.0 mL of acetonitrile containing 1% formic acid was added to one vial to terminate the reaction. Samples were stored at 4° C. until the end of the experiment. After the final timepoint was sampled, the tubes were mixed and then centrifuged at 3,000 rpm for 10 minutes. Aliquots of the supernatant were removed, diluted 1:1 into distilled water containing an internal standard, and analyzed by LCMS/MS. The percent of the opioid agonist peptide remaining at each timepoint was calculated based on the peak area response ratio of opioid agonist peptide to the internal standard. Time 0 was set to 100%, and all later timepoints were calculated relative to time 0. Half-lives were calculated by fitting to a first-order exponential decay equation using Graph pad.

[2] = SGF assay (stability in simulated gastric fluid); assay type: in vitro ADME; settings: pig, simulated gastric fluid (SGF) with porcine pepsin, pH 2, pepsin, 37° C.
Protocol: SGF was prepared by adding 20 mg NaCl, 32 mg porcine pepsin (MP Biochemicals, catalog 02102599), and 70 μl HCl to 10 ml water (final pH=2). Aliquots of SGF (0.5 ml each) were pre-warmed at 37° C. To start the reaction, 1 μl of opioid agonist peptide stock solution (10 mM in DMSO) was added to 0.5 ml SGF and thoroughly mixed such that the final peptide concentration was 20 μM. The reactions were incubated at 37° C. with gentle shaking.
At each timepoint (0, 15, 30, 60 min) 50 µl aliquots were removed and added to 200 ul of acetonitrile containing 0.1% formic acid to quench the reaction. Samples were stored at 4° C. until the end of the experiment and centrifuged at 10,000 rpm for 5 minutes. Aliquots of the supernatant were removed, diluted 1:1 into distilled water containing internal standard, and analyzed by LCMS/MS. The percent of the opioid agonist peptide remaining at each timepoint was calculated based on the peak area response ratio of the opioid agonist peptide to the internal standard. Time 0 was set to 100%, and all later timepoints were calculated relative to time 0. Half-lives were calculated by fitting to a first-order exponential decay equation using GraphPad.

[3] = Plasma assay (stability in mouse plasma); assay type: in vitro ADME; settings: 37° C.
Protocol: Peptides of interest (20 uM) were incubated with pre-warmed mouse plasma (BioreclamationIVT) at 37° C. Aliquots were taken at various time points up to 24 hours (e.g. 0, 0.25, 1, 3, 6 and 24 hr), and immediately quenched with 4 volumes of organic solvent (acetonitrile/methanol (1:1) and 0.1% formic acid, containing 1 μM internal standard). Quenched samples were stored at 4° C. until the end of the experiment and centrifuged at 17,000 g for 15 minutes. The supernatant was diluted 1:1 with deionized water and analyzed using LC-MS. Percentage remaining at each time point was calculated based on the peak area ratio (analyte over internal standard) relative to the initial level at time zero. Half-lives were calculated by fitting to a first-order exponential decay equation using Graph Pad Prism.

μ-opioid receptor (MOR) = target: T1, μ-opioid receptor (MOR) (Homo sapiens, UniProt P35372); test: MOR agonist cAMP assay (HitHunter cAMP, forskolin-stimulated); assay type: cell-based
T1 construct: host or cells: cAMP Hunter CHO-K1 OPRM1 Gαi cell line
Method in brief: (§1)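 CHO-K1 Gαi cells expressing OPRM1 or OPRD1 were exposed 30 min at 37° C to 11-point threefold agonist dilutions, in duplicate, with 20 uM forskolin final. cAMP quantified by EFC chemiluminescent competitive immunoassay against cAMP standards. EC50 by four-parameter Hill nonlinear regression.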

δ-opioid receptor (DOR) = target: T2, δ-opioid receptor (DOR) (Homo sapiens, UniProt P41143); test: DOR agonist cAMP assay (HitHunter cAMP, forskolin-stimulated); assay type: cell-based
T2 construct: host or cells: cAMP Hunter CHO-K1 OPRD1 Gαi cell line
Method in brief: as §1

visceral pain (writhing) = test: Acetic Acid or Acetylcholine Writhing Assay; assay type: in vivo; settings: PO
Protocol: Animals were fasted overnight prior to the start of the assay. Test and control article doses, ranging from 3-50 mg/kg, were administered (PO) followed by an IP injection of acetic acid (1.0%) or acetylcholine (10 mg/kg), and immediately placed in a viewing chamber. […] Writhing (abdominal constriction) was defined as a contraction of the abdominal musculature accompanied by arching of the back and extension of the limbs. Latency to first writhe and total number of writhes were recorded. Test articles included oral eluxadoline and two illustrative opioid peptides disclosed herein, Peptide A and Peptide D; and control articles included loperamide and morphine

[4] = system: gastro intestinal motility; test: Gastro Intestinal Motility Charcoal Transit Assay; assay type: in vivo
Protocol: Animals were treated with 0.2 mL croton oil 96 and 72 hours before the gastro intestinal transit (GIT) assay. Animals were fasted overnight prior to charcoal meal dosing. Test and control articles were administered (PO, IP) followed by an oral dose of aqueous suspension of 5% charcoal in 10% gum arabic. […] Charcoal meal test were given 30 min post-test article dose. Twenty minutes after administration of the charcoal test meal, animals were euthanized via CO2 inhalation followed by cervical dislocation, and the small and large intestines were examined to evaluate GI transit and motility. GI transit is expressed as a percentage of the distance traveled by the charcoal test meal divided by the length of the intestine.

T2 sequence (P41143 whole entry): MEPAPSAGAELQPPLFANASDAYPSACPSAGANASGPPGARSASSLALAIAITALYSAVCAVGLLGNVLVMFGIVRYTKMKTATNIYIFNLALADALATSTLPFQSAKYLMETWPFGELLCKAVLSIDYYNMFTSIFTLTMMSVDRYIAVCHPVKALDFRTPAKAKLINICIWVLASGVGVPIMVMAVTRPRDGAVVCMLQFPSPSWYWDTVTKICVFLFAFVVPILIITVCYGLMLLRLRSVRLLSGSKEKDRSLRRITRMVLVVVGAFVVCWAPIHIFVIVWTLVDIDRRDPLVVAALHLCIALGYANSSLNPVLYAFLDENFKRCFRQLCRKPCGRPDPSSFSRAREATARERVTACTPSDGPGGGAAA
T1 sequence (P35372 whole entry): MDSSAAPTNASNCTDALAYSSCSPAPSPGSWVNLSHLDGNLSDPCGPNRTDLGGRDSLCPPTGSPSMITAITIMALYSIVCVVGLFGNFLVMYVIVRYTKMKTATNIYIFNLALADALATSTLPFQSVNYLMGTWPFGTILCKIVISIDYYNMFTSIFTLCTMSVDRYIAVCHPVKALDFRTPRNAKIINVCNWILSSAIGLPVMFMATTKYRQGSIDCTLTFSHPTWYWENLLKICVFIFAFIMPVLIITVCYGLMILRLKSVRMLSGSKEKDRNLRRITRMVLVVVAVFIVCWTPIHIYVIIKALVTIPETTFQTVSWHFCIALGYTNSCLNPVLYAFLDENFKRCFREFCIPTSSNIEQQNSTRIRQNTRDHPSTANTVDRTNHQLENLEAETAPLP

Row | Compound | half-life at 20 μM [1] | half-life at 20 μM [2] | half-life at 20 uM [3] | EC50 (μ-opioid receptor (MOR)) | EC50 (δ-opioid receptor (DOR)) | effect on pain (writhing study) (visceral pain (writhing); FIGS. 3A and 3B) | visceral pain (writhing study) (visceral pain (writhing); at 30 mg/kg and 10 mg/kg, FIGS. 2A and 2B) | SIF (min) ([1]; Table 4, SIF half-life) | % inhibition of GI motility ([4]; Table 4, orally dosed, charcoal transit) | inhibition of small intestine motility as compared to eluxadoline ([4]; orally administered, all doses tested, FIG. 1A) | inhibition of GI transit as compared to eluxadoline ([4]; orally administered, all doses tested, FIGS. 1B and 1C)
1 | Cc1cc(O)cc(C)c1C[C@H](N)C(=O)N[C@H](CC(=O)O)C(=O)NCC(=O)N[C@H](CC(=O)N(C)CC(N)=O)Cc1ccccc1 [compound 83] | > 24 h | > 24 h | > 24 h | < 1 nM | < 1 nM | – | – | – | – | – | –
2 | Cc1cc(O)cc(C)c1C[C@H](N)C(=O)N[C@H](C)C(=O)NCC(=O)N[C@H](CC(=O)N(C)CC(N)=O)Cc1ccccc1 [compound 43] | 6 to 24 h | > 24 h | 6 to 24 h | – | < 1 nM | – | – | – | – | – | –
3 | CCCC[C@H](NC(=O)[C@H](Cc1ccccc1)NC(=O)CNC(=O)[C@@H](C)NC(=O)[C@@H](N)Cc1c(C)cc(O)cc1C)C(N)=O [compound 37] | ≤ 0.167 h | 0.167 to 6 h | 6 to 24 h | – | – | – | – | – | – | – | –
4 | Cc1cc(O)cc(C)c1C[C@H](N)C(=O)N[C@H](C)C(=O)NCC(=O)N[C@H](CC(=O)N(C)CC(N)=O)Cc1ccccc1 [Seq. ID 43, H-DMT-a-G-bhF-Sar-NH2] | – | – | – | – | – | positive effect | significantly reduced visceral pain | **** (for SIF half-life values, **** indicates >1290) | ** (** indicates between 50% and 100%) | slightly greater inhibition of small intestine motility | greater inhibition of GI transit
